The values below come from patent US11458138B2 (Novartis AG, priority 2017, dated 2022).

Usually pIC50 stands for −log10 of the IC50, conventionally taken in molar units. High values mean a low IC50, low ones a high IC50. For orientation: pEC50 means −log10 of the EC50, conventionally taken in molar units.

pEC50, pIC50: −log10 of the molar value.

For one assay, the target named is LATS1 (Homo sapiens (Human), UniProt O95835). The assay can be described thus: LATS1 biochemical assay (Table 1A, Compound Examples 1-290; method in the earlier part).
For assay [1], the system named is Phospho-YAP (SER127) in HaCaT cells. Kind of assay: pYAP HTRF Assay (HaCaT Cells). The class given is cell-based, human. Particulars: Homo sapiens, 2 hours. The method in brief: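 HaCaT cells at 5500 cells/well were cultured 48 hours at 37° C, then treated with compound for 2 hours. Phospho-YAP (Ser127) was detected by HTRF after an overnight (20 hrs) room-temperature incubation, read as the 665 nm/620 nm ratio.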
For orientation: In TR-FRET formats the signal depends on donor and acceptor labels being close together.

Assay [2] relates to YAP nuclear translocation in HaCaT cells. Kind of assay: YAP Translocation Assay (HaCaT Cells). The class given is cell-based, human. Particulars: Homo sapiens, 24 hours. The method in brief: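 HaCaT cells (20,000/well) in DMEM + 10% FBS were plated overnight at 37° C, then exposed to compound for 24 h at 37° C. Cells were fixed with PFA, permeabilized with 0.1% Triton/1.5% BSA and imaged by high-content imaging.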

For assay [3], the system named is Phospho-YAP (Ser127) in JHH-5 cells. Kind of assay: pYAP HTRF Assay (JHH-5 cells). The assay is classed as cell-based. Particulars: 2 hours. The method, then:
Briefly, JHH-5 cells are suspended at 0.48×10^6 cells/ml in William's E medium without phenol-red (Thermo Fisher Scientific Gibco catalog number A1217601) supplemented with 10% (v/v) heat-inactivated fetal bovine serum (Thermo Fisher Scientific Gibco catalog number 16140071) and penicillin-streptomycin at 100 U/ml each (Thermo Fisher Scientific Gibco catalog number 15140122). Cells are dispensed into 384well clear bottom culture plates (50 ul/well, at 24000 cells per well, Greiner catalog number 781091), and incubated for 24 hours in a cell culture incubator at 37° C. Test compounds are transferred into culture plates containing JHH-5 cells using an Echo550 (Labcyte) acoustic dispenser (50 nl/well), followed by incubation for 2 hours at 37° C. Lysis buffer (part of CisBio kit catalog number 64YAPPEI) is added to the assay plates as a four-fold concentrate (corresponding to 16 ul/well) and incubated for 30 minutes at room temperature with agitation. Lysate is transferred from culture plates into white low-volume 384well assay plates (12 ul/well, Greiner catalog number 784075), followed by the addition of 3 ul/well of detection antibodies (part of CisBio kit catalog number 64YAPPEI: 1:40 dilution of each pYAP d2 antibody and pYAP cryptate antibody stocks). The plates are sealed and incubated overnight (18 hours) at room temperature protected from light. Plates are read on an EnVision plate reader (Perkin Elmer) at emission wavelengths of 665 nm and 620 nm. The HTRF signal ratio x per well is calculated as [x=Signal(665 nm)/Signal(620 nm)×10000] as specified in the manufacturer's protocol.

Chain of LATS1 (O95835 whole entry, looked up): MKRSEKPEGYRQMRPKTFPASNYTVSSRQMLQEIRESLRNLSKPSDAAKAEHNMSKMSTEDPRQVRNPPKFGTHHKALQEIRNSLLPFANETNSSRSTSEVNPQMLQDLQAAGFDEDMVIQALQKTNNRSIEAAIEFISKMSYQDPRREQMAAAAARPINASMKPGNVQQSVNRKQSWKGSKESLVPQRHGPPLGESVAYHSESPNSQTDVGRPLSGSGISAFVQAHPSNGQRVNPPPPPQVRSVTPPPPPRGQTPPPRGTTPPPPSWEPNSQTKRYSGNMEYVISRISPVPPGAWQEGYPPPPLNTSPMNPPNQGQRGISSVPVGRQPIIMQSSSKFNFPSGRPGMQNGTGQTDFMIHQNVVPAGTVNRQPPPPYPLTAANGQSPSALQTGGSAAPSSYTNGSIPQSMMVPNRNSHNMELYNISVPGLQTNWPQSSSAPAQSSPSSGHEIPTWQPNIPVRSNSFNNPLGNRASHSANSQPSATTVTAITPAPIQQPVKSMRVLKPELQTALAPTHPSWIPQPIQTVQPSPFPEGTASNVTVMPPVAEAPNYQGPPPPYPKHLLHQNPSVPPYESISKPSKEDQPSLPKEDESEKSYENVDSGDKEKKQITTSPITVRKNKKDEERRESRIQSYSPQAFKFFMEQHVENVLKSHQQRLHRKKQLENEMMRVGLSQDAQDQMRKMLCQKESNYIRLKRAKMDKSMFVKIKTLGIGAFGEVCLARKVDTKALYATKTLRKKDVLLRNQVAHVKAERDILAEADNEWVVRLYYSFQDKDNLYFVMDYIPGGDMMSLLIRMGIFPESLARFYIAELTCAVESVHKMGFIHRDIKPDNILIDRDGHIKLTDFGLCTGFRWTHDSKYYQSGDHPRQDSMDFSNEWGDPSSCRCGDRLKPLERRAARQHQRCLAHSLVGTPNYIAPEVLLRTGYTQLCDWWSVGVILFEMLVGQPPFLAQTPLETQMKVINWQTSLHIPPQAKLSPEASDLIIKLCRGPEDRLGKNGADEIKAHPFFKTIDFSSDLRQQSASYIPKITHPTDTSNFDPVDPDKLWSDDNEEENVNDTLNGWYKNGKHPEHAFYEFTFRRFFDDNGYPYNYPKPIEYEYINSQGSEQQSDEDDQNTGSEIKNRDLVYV
Chain of LATS1 (Q7L9L4 whole entry partner, looked up): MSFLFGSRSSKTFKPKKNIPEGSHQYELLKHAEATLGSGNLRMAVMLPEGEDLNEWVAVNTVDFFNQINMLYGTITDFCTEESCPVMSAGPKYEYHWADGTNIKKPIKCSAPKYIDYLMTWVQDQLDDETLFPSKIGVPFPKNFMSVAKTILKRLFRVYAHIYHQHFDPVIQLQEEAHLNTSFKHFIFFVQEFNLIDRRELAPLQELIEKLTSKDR

In the case of `Cc1n[nH]cc1-c1cc(NC(C)(C)C)c2ccncc2n1` [Example 269, N-tert-butyl-2-(3-methyl-1H-pyrazol-4-yl)-1,7-naphthyridin-4-amine], the results for the negative logarithm of the IC50 (pIC50) (against LATS1; in assay [1]; in assay [3]) were 9.00, 6.53 and 6.10, respectively. In assay [2], this compound gave a negative logarithm of the EC50 (pEC50) of 6.36.

With `CCN(CC)c1nc(-c2ccncc2)nc2cnccc12` [Example 2], the pIC50 at LATS1 was 9.00; in assay [1], 7.17; in assay [3], under 5.00. Further, the pEC50 in assay [2] is 6.23.

`CC1(Nc2nc(-c3ccncc3)nc3cnccc23)CC1` [Example 99, N-(1-methylcyclopropyl)-2-(pyridin-4-yl)pyrido[3,4-d]pyrimidin-4-amine]: the negative-log IC50 (pIC50) on LATS1 was 9.00; in assay [1], 6.95; in assay [3], 5.24. In assay [2], the pEC50 is 6.22.

Regarding `CC(C)(C)Nc1cc(-c2ccnnc2)nc2cnccc12` [Example 273, N-tert-butyl-2-(pyridazin-4-yl)-1,7-naphthyridin-4-amine], the negative logarithm of the IC50 (pIC50) at LATS1 is 6.33; in assay [1], under 4.00; in assay [3] it was under 5.00. For the same compound, in assay [2], the negative-log EC50 (pEC50) is under 4.70.

For `C[C@H](N(C)c1nc(-c2ccncc2F)nc2cnccc12)C(F)(F)F` [Example 136, 2-(3-fluoropyridin-4-yl)-N-methyl-N-[(2S)-1,1,1-trifluoropropan-2-yl]pyrido[3,4-d]pyrimidin-4-amine], the pIC50 is 8.70 at LATS1, 5.94 in assay [1] and 5.89 in assay [3]. For the same compound, the pEC50 in assay [2] is 5.53.

Consider `CC(C)(O)C(C)(C)Nc1nc(-c2ccncc2)nc2cnccc12` [Example 71, 2,3-dimethyl-3-{[2-(pyridin-4-yl)pyrido[3,4-d]pyrimidin-4-yl]amino}butan-2-ol], for which the figures for the negative logarithm of the IC50 (pIC50) (against LATS1; in assay [1]; in assay [3]) were 8.40, 7.59 and under 5.00, respectively. Besides, in assay [2], the pEC50 was 5.80.

For `Cc1n[nH]cc1-c1nc(NC(C)(C)CC(C)(C)O)c2ccncc2n1` [Example 140, 2,4-dimethyl-4-{[2-(3-methyl-1H-pyrazol-4-yl)pyrido[3,4-d]pyrimidin-4-yl]amino}pentan-2-ol], the pIC50 against LATS1 was 8.40; in assay [1], 5.91; in assay [3] it was 5.66. In assay [2], this compound had a pEC50 of 5.65.

For `CC(C)(C)Nc1cc(-c2ccnc(N)n2)nc2cnccc12` [Example 271, 2-(2-aminopyrimidin-4-yl)-N-tert-butyl-1,7-naphthyridin-4-amine], the figures for the pIC50 (at LATS1; in assay [1]; in assay [3]) were 8.70, 6.73 and 6.10, respectively. Further, the negative logarithm of the EC50 (pEC50) in assay [2] was 5.97.

As to `CC1(Nc2nc(-c3ccncc3)nc3c(Cl)nccc23)CC1` [Example 198, 8-chloro-N-(1-methylcyclopropyl)-2-(pyridin-4-yl)pyrido[3,4-d]pyrimidin-4-amine], the pIC50 on LATS1 was 9.00; in assay [1], 5.66; in assay [3], 5.89. In addition, in assay [2], the pEC50 was 5.49.

With `CC(C)(C)Nc1nc(-c2c[nH]nc2C(F)(F)F)nc2cnccc12` [Example 115, N-tert-butyl-2-[3-(trifluoromethyl)-1H-pyrazol-4-yl]pyrido[3,4-d]pyrimidin-4-amine], the pIC50 at LATS1 is 8.70; in assay [1], 5.98; in assay [3], 5.47. In assay [2], this compound gave a pEC50 of 5.78.

Turning to `COCCC(C)(C)Nc1nc(-c2ccncc2)nc2cnccc12` [Example 8, N-(4-methoxy-2-methylbutan-2-yl)-2-(pyridin-4-yl)pyrido[3,4-d]pyrimidin-4-amine], the figures for the pIC50 (at LATS1; in assay [1]; in assay [3]) were 8.52, 6.70 and 5.72, respectively. In assay [2], the pEC50 was 5.92.

Turning to `CC(C)(Nc1nc(-c2ccncc2F)nc2cnccc12)C(F)(F)F` [Example 134, 2-(3-fluoropyridin-4-yl)-N-(1,1,1-trifluoro-2-methylpropan-2-yl)pyrido[3,4-d]pyrimidin-4-amine], the pIC50 against LATS1 was 9.00; in assay [1], 6.27; in assay [3], 6.00. The pEC50 in assay [2] was 5.92.

On to `CC(C)(O)C(C)(Nc1nc(-c2ccncc2)nc2cnccc12)C(F)(F)F` (stereo not drawn) [Example 50, 4,4,4-trifluoro-2,3-dimethyl-3-{[2-(pyridin-4-yl)pyrido[3,4-d]pyrimidin-4-yl]amino}butan-2-ol], for which the negative-log IC50 (pIC50) on LATS1 was 8.30; in assay [1], 4.77; in assay [3], under 5.00. This compound also showed a pEC50 in assay [2] of 5.42.

Take `CC(C)(C)Nc1nc(-c2ccncc2Cl)nc2cnccc12` [Example 116, N-tert-butyl-2-(3-chloropyridin-4-yl)pyrido[3,4-d]pyrimidin-4-amine]: the values for the pIC50 (against LATS1; in assay [1]; in assay [3]) were 8.52, 6.11 and 5.66, respectively. In addition, in assay [2], the pEC50 is 5.66.

Regarding `CC(C)(C)Nc1cc(-c2ccncn2)nc2cnccc12` [Example 270, N-tert-butyl-2-(pyrimidin-4-yl)-1,7-naphthyridin-4-amine], the pIC50 at LATS1 is 8.70; in assay [1], 6.37; in assay [3] it was 6.10. The compound also gave a negative-log EC50 (pEC50) in assay [2] of 6.06.

In the case of `CC(C)(C)CC(C)(C)Nc1nc(-c2ccncc2)nc2cnccc12` [Example 72, 2-(pyridin-4-yl)-N-(2,4,4-trimethylpentan-2-yl)pyrido[3,4-d]pyrimidin-4-amine], the figures for the pIC50 (against LATS1; in assay [1]; in assay [3]) were 8.40, 5.93 and 5.34, respectively. Moreover, in assay [2], the pEC50 was 5.44.

Turning to `CC(C)(CC(=O)O)Nc1nc(-c2ccncc2)nc2cnccc12` [Example 40, 3-methyl-3-{[2-(pyridin-4-yl)pyrido[3,4-d]pyrimidin-4-yl]amino}butanoic acid], the pIC50 on LATS1 was 6.48; in assay [1] it was under 5.00; in assay [3], under 5.00. In addition, the pEC50 in assay [2] was under 4.70.

Consider `CC(C)N(C)c1nc(-c2ccncc2F)nc2cnccc12` [Example 122, 2-(3-fluoropyridin-4-yl)-N-methyl-N-(propan-2-yl)pyrido[3,4-d]pyrimidin-4-amine], for which the values for the pIC50 (on LATS1; in assay [1]; in assay [3]) were 7.82, 5.13 and 5.10, respectively. For the same compound, the negative-log EC50 (pEC50) in assay [2] is 5.24.

As to `CC(C)(C)Nc1nc(-c2ccncc2)nc2cncc(Cl)c12` [Example 251, N-(tert-butyl)-5-chloro-2-(pyridin-4-yl)pyrido[3,4-d]pyrimidin-4-amine], the negative logarithm of the IC50 (pIC50) against LATS1 was 8.40; in assay [1] it was 5.71; in assay [3], 5.82. In assay [2], this compound had a pEC50 of 4.96.

For the compound `C[C@]1(Nc2nc(-c3ccncc3)nc3cnccc23)C[C@@H](O)C1` [Example 70, (1r,3s)-3-methyl-3-{[2-(pyridin-4-yl)pyrido[3,4-d]pyrimidin-4-yl]amino}cyclobutan-1-ol], the values for the pIC50 (on LATS1; in assay [1]; in assay [3]) were 8.52, 6.37 and 5.40, respectively. The compound further gave a pEC50 in assay [2] of 5.77.

Take `Cn1nccc1-c1nc(NC(C)(C)C)c2ccncc2n1` [Example 184, N-tert-butyl-2-(1-methyl-1H-pyrazol-5-yl)pyrido[3,4-d]pyrimidin-4-amine]: the pIC50 against LATS1 was 8.40; in assay [1], 5.60; in assay [3] it was 5.19. For the same compound, the pEC50 in assay [2] is 5.55.

As for `CCCNc1nc(-c2c[nH]c3ncccc23)nc2cnccc12` [Example 155, N-propyl-2-{1H-pyrrolo[2,3-b]pyridin-3-yl}pyrido[3,4-d]pyrimidin-4-amine], the figures for the pIC50 (against LATS1; in assay [1]; in assay [3]) were 9.00, 5.80 and 5.59, respectively. Besides, in assay [2], the pEC50 is 5.98.

Turning to `Cc1cnccc1-c1nc(NC(C)(C)C(F)(F)F)c2ccncc2n1` [Example 157, 2-(3-methylpyridin-4-yl)-N-(1,1,1-trifluoro-2-methylpropan-2-yl)pyrido[3,4-d]pyrimidin-4-amine], the pIC50 on LATS1 is 8.22; in assay [1], 5.39; in assay [3], 5.04. In assay [2], this compound showed a pEC50 of 5.42.

On to `CC(C)(CN)Nc1nc(-c2ccncc2)nc2cnccc12` [Example 110, N-(1-amino-2-methylpropan-2-yl)-2-(pyridin-4-yl)pyrido[3,4-d]pyrimidin-4-amine], for which the pIC50 against LATS1 was 8.70; in assay [1], 5.53; in assay [3], 5.82. This compound also had a negative logarithm of the EC50 (pEC50) in assay [2] of 4.82.
